Broadly, the EC50 is the midpoint of the concentration-response curve. Usually IC50 stands for the concentration at which inhibition is half-maximal.

Data on 6 compounds can be found in article PMC3234597, “Two Panels of Steroid Receptor Luciferase Reporter Cell Lines for Compound Profiling” (Combinatorial Chemistry & High Throughput Screening, 2011).

Holding throughout (format): cell-based
In one assay the target is T1, MR-LBD fused to Gal4-DBD (Homo sapiens, UniProt P08235).
T1 construct: MR-LBD was cloned by RT-PCR from total RNA isolated from HEK293 cells; expressed in transfected cells; host or cells: U2OS
T1 sequence (P08235 726-964 limits assumed): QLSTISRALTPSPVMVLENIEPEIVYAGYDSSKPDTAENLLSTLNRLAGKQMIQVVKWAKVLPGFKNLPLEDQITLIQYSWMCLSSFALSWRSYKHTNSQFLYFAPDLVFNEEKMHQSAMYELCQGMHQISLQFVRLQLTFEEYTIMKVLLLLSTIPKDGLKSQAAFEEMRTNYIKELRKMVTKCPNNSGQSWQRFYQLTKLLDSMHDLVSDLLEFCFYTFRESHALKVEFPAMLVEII
The assay can be described thus: U2OS-MR-LBD/9xGal4UAS luciferase reporter cell line. In general terms: In a reporter assay the amount or activity of a reporter protein is the signal.

Another assay has as its target T2, human MR (full-length) (Homo sapiens, UniProt P08235).
T2 construct: expression vectors encoding full-length steroid receptors: pcDNA3-hAR, pcDNA3-hGR and pcDNA3-hMR; expressed in transfected cells; host or cells: U2OS
T2 sequence (P08235 1-984): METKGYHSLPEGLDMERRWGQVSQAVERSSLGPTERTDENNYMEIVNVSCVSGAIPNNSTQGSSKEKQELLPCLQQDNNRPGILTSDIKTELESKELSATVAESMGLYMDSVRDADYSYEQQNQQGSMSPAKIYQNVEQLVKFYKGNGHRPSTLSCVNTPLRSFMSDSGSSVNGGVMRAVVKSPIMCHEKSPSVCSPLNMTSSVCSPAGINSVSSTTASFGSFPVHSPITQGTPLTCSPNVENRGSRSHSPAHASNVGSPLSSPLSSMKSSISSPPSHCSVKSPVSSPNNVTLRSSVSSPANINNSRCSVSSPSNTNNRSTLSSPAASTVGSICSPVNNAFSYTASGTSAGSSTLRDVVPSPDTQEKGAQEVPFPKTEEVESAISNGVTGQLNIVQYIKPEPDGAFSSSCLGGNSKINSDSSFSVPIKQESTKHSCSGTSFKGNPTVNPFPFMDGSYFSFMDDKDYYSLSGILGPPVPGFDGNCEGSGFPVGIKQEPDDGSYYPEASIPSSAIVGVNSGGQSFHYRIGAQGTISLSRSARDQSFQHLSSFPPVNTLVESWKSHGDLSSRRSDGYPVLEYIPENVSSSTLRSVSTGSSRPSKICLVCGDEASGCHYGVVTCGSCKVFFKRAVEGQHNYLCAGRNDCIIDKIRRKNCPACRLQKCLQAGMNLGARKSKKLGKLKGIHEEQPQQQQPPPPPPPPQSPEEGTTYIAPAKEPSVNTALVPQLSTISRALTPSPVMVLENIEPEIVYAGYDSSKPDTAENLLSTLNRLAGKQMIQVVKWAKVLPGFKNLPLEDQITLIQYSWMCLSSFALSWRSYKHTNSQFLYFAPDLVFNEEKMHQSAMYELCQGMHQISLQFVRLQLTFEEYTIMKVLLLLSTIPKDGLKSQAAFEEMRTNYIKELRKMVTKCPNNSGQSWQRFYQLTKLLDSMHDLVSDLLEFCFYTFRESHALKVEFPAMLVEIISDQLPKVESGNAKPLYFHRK
As to the kind of experiment: U2OS-MR/MMTV luciferase reporter cell line (full-length receptor).

A further assay deals with T3, human ERβ (full-length) (Homo sapiens, UniProt Q92731).
T3 construct: expression vectors encoding full-length steroid receptors: pcDNA3-hERα and pcDNA3-ERβ; expressed in transfected cells; host or cells: U2OS
The assay can be described thus: U2OS-ERβ/3xERE luciferase reporter cell line (full-length receptor). To be noted: for EC50: read-out: Log EC50 (converted).

The target in a further assay is T4, PR-LBD fused to Gal4-DBD (Homo sapiens, UniProt P06401).
T4 construct: PR-LBD region was PCR amplified using the following primer combination; host or cells: U2OS
T4 sequence (P06401 679-913 limits assumed): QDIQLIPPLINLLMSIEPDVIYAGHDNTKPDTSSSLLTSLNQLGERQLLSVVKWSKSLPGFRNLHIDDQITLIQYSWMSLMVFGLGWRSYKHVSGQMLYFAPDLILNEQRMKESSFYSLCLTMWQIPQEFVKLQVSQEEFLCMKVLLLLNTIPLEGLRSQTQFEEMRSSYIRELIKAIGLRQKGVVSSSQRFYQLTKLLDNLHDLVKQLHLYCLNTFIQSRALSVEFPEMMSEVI
As to the kind of experiment: U2OS-PR-LBD/9xGal4UAS luciferase reporter cell line.

The target in assay [1] is T5, ERβ-LBD fused to Gal4-DBD (Homo sapiens, UniProt Q92731).
T5 construct: region comprising ERβ-LBD and a piece of the hinge region; expressed in transfected cells; host or cells: U2OS
As to the kind of experiment: U2OS-ERβ-LBD/9xGal4UAS luciferase reporter cell line. To be noted: read-out: Log EC50 (converted).

In assay [2] the target is T6, human GR (full-length) (Homo sapiens, UniProt P04150).
T6 construct: expression vectors encoding full-length steroid receptors: pcDNA3-hAR and pcDNA3-hGR; host or cells: U2OS
T6 sequence (P04150 1-777): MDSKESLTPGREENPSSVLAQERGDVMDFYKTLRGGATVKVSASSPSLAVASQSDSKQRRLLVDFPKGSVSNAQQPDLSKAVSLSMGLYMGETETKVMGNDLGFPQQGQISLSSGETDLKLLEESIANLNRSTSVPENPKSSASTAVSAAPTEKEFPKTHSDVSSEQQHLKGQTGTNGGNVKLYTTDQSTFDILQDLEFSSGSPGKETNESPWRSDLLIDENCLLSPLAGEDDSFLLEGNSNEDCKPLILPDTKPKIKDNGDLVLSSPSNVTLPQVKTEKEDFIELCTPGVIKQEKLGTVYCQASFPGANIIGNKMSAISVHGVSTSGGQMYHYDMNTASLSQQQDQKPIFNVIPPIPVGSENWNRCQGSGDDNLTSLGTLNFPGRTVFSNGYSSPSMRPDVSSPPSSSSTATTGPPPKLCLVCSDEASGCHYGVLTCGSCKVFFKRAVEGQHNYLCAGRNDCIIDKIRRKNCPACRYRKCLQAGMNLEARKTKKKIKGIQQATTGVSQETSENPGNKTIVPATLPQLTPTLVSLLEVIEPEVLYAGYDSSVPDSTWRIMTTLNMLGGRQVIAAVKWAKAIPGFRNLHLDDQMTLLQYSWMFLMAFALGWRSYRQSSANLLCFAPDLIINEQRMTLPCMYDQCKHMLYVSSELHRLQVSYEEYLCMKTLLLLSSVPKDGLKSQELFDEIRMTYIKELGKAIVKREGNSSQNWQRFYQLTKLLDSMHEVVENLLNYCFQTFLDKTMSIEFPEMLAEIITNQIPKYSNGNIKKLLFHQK
The assay can be described thus: U2OS-GR/3xGRE luciferase reporter cell line (full-length receptor).

Assay [3] concerns the target T6, human GR (full-length). As to the kind of experiment: U2OS-GR/MMTV luciferase reporter cell line (full-length receptor).
The next assay deals with T7, GR-LBD fused to Gal4-DBD (Homo sapiens, UniProt P04150).
T7 construct: expressed in transfected cells; host or cells: U2OS
T7 sequence (P04150 524-758 limits assumed): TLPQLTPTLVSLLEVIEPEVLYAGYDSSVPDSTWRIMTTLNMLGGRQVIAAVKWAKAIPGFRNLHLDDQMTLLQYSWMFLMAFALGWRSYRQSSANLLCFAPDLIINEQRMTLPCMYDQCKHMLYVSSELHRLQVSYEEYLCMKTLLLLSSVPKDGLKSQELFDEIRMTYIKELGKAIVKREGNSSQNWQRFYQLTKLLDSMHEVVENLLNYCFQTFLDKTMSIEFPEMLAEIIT
As to the kind of experiment: U2OS-GR-LBD/9xGal4UAS luciferase reporter cell line.

[4] abbreviates: antagonist mode, PR-LBD/9xGal4UAS, log10 of molar IC50, mean ± SEM, read-out: Log IC50 (converted).

“Also recorded” adds a separate entry of the source. Like-named read-outs stand apart in the source and are kept apart here. Bounds are passed on as bounds.

T3 sequence (Q92731 whole entry): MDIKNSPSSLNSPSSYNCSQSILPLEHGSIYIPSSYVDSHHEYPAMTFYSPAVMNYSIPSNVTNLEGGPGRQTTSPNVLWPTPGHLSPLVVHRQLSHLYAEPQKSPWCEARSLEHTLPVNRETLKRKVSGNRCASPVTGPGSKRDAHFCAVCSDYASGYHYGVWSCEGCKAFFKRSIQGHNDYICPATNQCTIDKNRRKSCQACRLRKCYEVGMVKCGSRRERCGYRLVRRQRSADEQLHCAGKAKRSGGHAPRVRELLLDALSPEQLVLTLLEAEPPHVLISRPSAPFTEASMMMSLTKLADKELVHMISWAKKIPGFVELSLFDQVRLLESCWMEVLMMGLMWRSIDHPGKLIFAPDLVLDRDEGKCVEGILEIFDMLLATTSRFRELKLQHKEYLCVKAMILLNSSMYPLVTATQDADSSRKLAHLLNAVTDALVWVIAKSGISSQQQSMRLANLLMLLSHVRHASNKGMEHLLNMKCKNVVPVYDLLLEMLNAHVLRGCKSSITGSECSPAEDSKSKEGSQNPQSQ
T5 sequence (Q92731 264-498 limits assumed): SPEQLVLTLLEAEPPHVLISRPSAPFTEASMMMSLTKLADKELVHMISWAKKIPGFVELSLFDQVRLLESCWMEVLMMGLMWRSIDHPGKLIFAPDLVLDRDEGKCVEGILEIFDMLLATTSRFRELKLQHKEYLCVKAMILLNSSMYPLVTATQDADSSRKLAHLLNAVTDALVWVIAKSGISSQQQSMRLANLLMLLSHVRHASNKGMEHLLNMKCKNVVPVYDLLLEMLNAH

For `CC1(C)NC(=O)N(c2ccc([N+](=O)[O-])c(C(F)(F)F)c2)C1=O` [Nilutamide, nilutamide], the EC50 (at MR-LBD fused to Gal4-DBD (read-out: Log EC50 (converted)); at human MR (full-length) (read-out: Log EC50 (converted)); at human ERβ (full-length); at PR-LBD fused to Gal4-DBD (read-out: Log EC50 (converted)); in assay [1]) was above 10 µM throughout. Moreover, at PR-LBD fused to Gal4-DBD (setting [4]), the IC50 was above 10 µM.
`CC#C[C@]1(O)CC[C@H]2[C@@H]3CCC4=CC(=O)CCC4=C3[C@@H](c3ccc(N(C)C)cc3)C[C@@]21C` [Mifepristone (RU486), mifepristone]: the “activity profile in words” value was “partial agonist/full antagonist” on human GR (full-length) [2] (full-length GR reporter cell line U2OS-GR/3xGRE), “partial agonist/full antagonist” at human GR (full-length) [3] (full-length GR reporter cell line U2OS-GR/MMTV) and “very potent pure full antagonist” on GR-LBD fused to Gal4-DBD (GR LBD format (U2OS-GR-LBD/9xGal4UAS)).
Turning to 4-hydroxy-tamoxifen, the “Log EC50” value on human GR (full-length) [2] (agonist mode, GR/3xGRE, 20 h, log10 of molar EC50, mean ± SEM) is above -5.00 M; at MR-LBD fused to Gal4-DBD (agonist mode, MR-LBD/9xGal4UAS, 20 h, log10 of molar EC50, mean ± SEM), above -5.00 M; on human MR (full-length) (agonist mode, MR/MMTV, 20 h, log10 of molar EC50, mean ± SEM), above -5.00 M; on human GR (full-length) [3] (agonist mode, GR/MMTV, 20 h, log10 of molar EC50, mean ± SEM), above -5.00 M; at GR-LBD fused to Gal4-DBD (agonist mode, GR-LBD/9xGal4UAS, 20 h, log10 of molar EC50, mean ± SEM), above -5.00 M. For the same compound, the “Log IC50” value is on record as above -5.00 M on human GR (full-length) [2] (antagonist mode, GR/3xGRE, in the presence of 5 nM dexamethasone, log10 of molar IC50, mean ± SEM); above -5.00 M at MR-LBD fused to Gal4-DBD (antagonist mode, MR-LBD/9xGal4UAS, in the presence of 1 nM aldosterone, log10 of molar IC50, mean ± SEM); above -5.00 M at human MR (full-length) (antagonist mode, MR/MMTV, in the presence of 1 nM aldosterone, log10 of molar IC50, mean ± SEM); above -5.00 M at human GR (full-length) [3] (antagonist mode, GR/MMTV, in the presence of 5 nM dexamethasone, log10 of molar IC50, mean ± SEM); above -5.00 M on GR-LBD fused to Gal4-DBD (antagonist mode, GR-LBD/9xGal4UAS, in the presence of 5 nM dexamethasone, log10 of molar IC50, mean ± SEM).
For the compound `C[C@H]1C[C@H]2[C@@H]3CCC4=CC(=O)C=C[C@]4(C)[C@@]3(F)[C@@H](O)C[C@]2(C)[C@@]1(O)C(=O)CO` [Betamethasone, betamethasone], the “activity profile in words” value at MR-LBD fused to Gal4-DBD (MR-LBD expressing reporter cell line, agonist and antagonist mode) was “only weakly and partially activated; also recorded: pronounced full antagonist effect”; on human MR (full-length) (full-length MR format, antagonist mode), “no sign of antagonistic activity”. The IC50 at PR-LBD fused to Gal4-DBD (setting [4]) is above 10 µM. Further, at PR-LBD fused to Gal4-DBD (read-out: Log EC50 (converted)), the EC50 is 4.79 µM.
On to `CC(=O)O[C@]1(C(C)=O)CC[C@H]2[C@@H]3C=C(Cl)C4=CC(=O)[C@@H]5C[C@@H]5[C@]4(C)[C@H]3CC[C@@]21C` [Cyproterone acetate, cyproterone acetate], for which the EC50 (on MR-LBD fused to Gal4-DBD (read-out: Log EC50 (converted)); at human MR (full-length) (read-out: Log EC50 (converted)); at human ERβ (full-length); in assay [1]) was above 10 µM each time. The “luciferase activity in ERβ reporter cell lines” value at human ERβ (full-length) (ERβ reporter cell lines, even at 10 μM concentration) was “did not find any sign of luciferase activity”.
For `C[C@]12CCC(=O)C[C@@H]1CC[C@@H]1[C@@H]2CC[C@]2(C)[C@@H](O)CC[C@@H]12` [Dihydrotestosterone, 5α-androstan-17β-ol-3-one], the values for the EC50 at MR-LBD fused to Gal4-DBD, at human MR (full-length) and on PR-LBD fused to Gal4-DBD were above 10 µM, above 10 µM and 0.398 µM, respectively. The compound also came in with an IC50 against PR-LBD fused to Gal4-DBD above 10 µM.
